# Laboratory results: patent US11780845B2 (Relay Therapeutics, Inc., priority 2019, dated 2023)
# pIC50: −log10 of the molar value.
# Columns and labels:
# FGFR2 = FGFR2 (Homo sapiens (Human), UniProt P21802); assay: Biochemical FGFR2 Caliper assay
# SNU-16 = assay: Cell SNU-16 assay; format: cell-based; details: Homo sapiens, SNU-16, SNU-16 cells
# FGFR2, sequence (P21802 22-821): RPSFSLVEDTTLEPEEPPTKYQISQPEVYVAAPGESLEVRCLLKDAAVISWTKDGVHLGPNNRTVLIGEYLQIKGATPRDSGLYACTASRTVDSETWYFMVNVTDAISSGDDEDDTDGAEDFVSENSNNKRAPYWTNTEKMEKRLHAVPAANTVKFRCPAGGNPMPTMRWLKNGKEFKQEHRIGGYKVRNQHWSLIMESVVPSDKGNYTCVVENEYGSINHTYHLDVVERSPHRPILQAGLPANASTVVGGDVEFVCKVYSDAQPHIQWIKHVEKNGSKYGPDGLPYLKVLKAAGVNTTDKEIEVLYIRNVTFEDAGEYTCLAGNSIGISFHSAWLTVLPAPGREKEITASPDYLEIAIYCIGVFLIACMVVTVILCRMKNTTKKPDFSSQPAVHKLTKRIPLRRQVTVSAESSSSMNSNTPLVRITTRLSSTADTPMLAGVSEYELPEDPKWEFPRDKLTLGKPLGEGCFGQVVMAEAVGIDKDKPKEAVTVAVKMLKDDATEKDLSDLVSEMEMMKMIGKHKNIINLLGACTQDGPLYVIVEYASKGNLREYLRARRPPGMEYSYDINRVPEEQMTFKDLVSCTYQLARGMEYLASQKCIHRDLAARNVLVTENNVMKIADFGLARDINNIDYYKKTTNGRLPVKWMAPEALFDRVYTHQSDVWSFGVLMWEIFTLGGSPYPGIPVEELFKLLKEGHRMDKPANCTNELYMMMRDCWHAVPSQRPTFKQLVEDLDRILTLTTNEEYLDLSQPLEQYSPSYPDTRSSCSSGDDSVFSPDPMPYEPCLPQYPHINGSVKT
pIC50 (FGFR2),pIC50 (SNU-16),SMILES
> 7.00,≥ 7.00,C#Cc1cc(C)c(-c2c(-c3ccc(Oc4nccc(C)n4)cn3)c3c(N)ncnc3n2C)cn1 [Example 1327]
> 7.00,≥ 7.00,C#Cc1ncc(-c2c(-c3ccc(Oc4nccc(C)n4)cn3)c3c(N)ncnc3n2C)c(C)c1F [Example 1328]
> 7.00,≥ 7.00,C#Cc1ncc(-c2c(-c3ccc(Oc4nccc(C)n4)c(F)c3)c3c(N)ncnc3n2C(C)C)c(C)c1F [Example 1334]
> 7.00,≥ 7.00,C#Cc1ncc(-c2c(-c3ccc(Oc4nccc(C)n4)c(F)c3)c3c(N)ncnc3n2C)c(OC)c1F [Example 1336]
6.60 to 7.00,≥ 7.00,C=C(C)C(=O)Nc1ccc(-c2c(C3=CC[C@]4(CC3)Cc3ccc(OC)nc3C4=O)c3c(N)ncnc3n2C)cc1 [Example 1337]
4.00 to 6.00,4.00 to 6.00,C=C(C)C(=O)Nc1ccc(-c2c(C3=CC[C@@]4(CC3)Cc3ccc(OC)nc3C4=O)c3c(N)ncnc3n2C)cc1 [Example 1338]
> 7.00,6.00 to 6.60,C#Cc1cc(C)c(-c2c(C3=CC[C@@H](C(=O)N4CCCC45CC5)CC3)c3c(N)ncnc3n2C)cn1 [Example 1341]
4.00 to 6.00,4.00 to 6.00,C=C(C)C(=O)Nc1ccc(-c2c(-c3ccc4ncnn4c3)c3c(N)ncnc3n2C)cc1 [Example 1343]
4.00 to 6.00,4.00 to 6.00,C=C(C)C(=O)Nc1ccc(-c2c(-c3ccc4nccn4c3)c3c(N)ncnc3n2C)cc1 [Example 1345]
> 7.00,6.00 to 6.60,C#Cc1nc2cc(-c3c(C4=CC[C@H](C(=O)N5CCC[C@H]5COC)CC4)c4c(N)ncnc4n3C)ccc2[nH]1 [Example 1346]
> 7.00,≥ 7.00,C#Cc1cc(C)c(-c2c(C3=CC[C@@H](C(=O)N4CCC[C@H]4C)CC3)c3c(N)ncnc3n2C)c(F)n1 [Example 1347]
4.00 to 6.00,4.00 to 6.00,C=C(C)C(=O)Nc1ccc(-c2c(-c3ccn4ncnc4c3)c3c(N)ncnc3n2C)cc1 [Example 1350]
4.00 to 6.00,4.00 to 6.00,C=C(C)C(=O)Nc1ccc(-c2c(-c3cnc4nncn4c3)c3c(N)ncnc3n2C)cc1 [Example 1351]
> 7.00,≥ 7.00,C=Cc1ccc(-c2c(-c3ccc4nn[nH]c4c3)c3c(N)ncnc3n2C)cn1 [Example 1352]
> 7.00,≥ 7.00,C#Cc1ncc(-c2c(-c3ccc(Oc4nccc(C)n4)c(F)c3)c3c(N)ncnc3n2C)c(C)c1OC [Example 1353]
> 7.00,≥ 7.00,C#Cc1cc(OC)c(-c2c(C3=CC[C@@H](C(=O)N4CCC[C@H]4C)CC3)c3c(N)ncnc3n2C)cn1 [Example 1354]
> 7.00,≥ 7.00,C#Cc1cc(OC)c(-c2c(C3=CC[C@H](C(=O)N4CCC[C@H]4C)CC3)c3c(N)ncnc3n2C)cn1 [Example 1355]
> 7.00,≥ 7.00,C#Cc1cc(C)c(-c2c(-c3ccc(Oc4nccc(C)n4)c(F)c3)c3c(Cl)ncnc3n2C)cn1 [Example 1356]
> 7.00,≥ 7.00,C#Cc1cnc(-c2c(-c3ccc(Oc4nccc(C)n4)c(F)c3)c3c(N)ncnc3n2C)c(C)n1 [Example 1358]
> 7.00,≥ 7.00,C#Cc1nc2cc(-c3c(-c4ccc(Oc5nccc(C)n5)c(F)c4)c4c(N)ncnc4n3C)ccc2n1C [Example 1359]

pIC50 (FGFR2),pIC50 (SNU-16),SMILES
> 7.00,≥ 7.00,C#Cc1cnc2cc(-c3c(-c4ccc(Oc5nccc(C)n5)c(F)c4)c4c(N)ncnc4n3C)ccc2n1 [Example 1363]
> 7.00,≥ 7.00,C#Cc1nc2cc(-c3c(-c4ccc(Oc5nccc(C)n5)c(F)c4)c4c(C)ncnc4n3C)ccc2[nH]1 [Example 1364]
> 7.00,≥ 7.00,C#Cc1ncc(-c2c(-c3ccc(Oc4nccc(C)n4)c(F)c3)c3c(N)ncnc3n2C)c(C)c1C [Example 1365]
> 7.00,≥ 7.00,C#Cc1cc(C)c(-c2c(-c3ccc(Oc4nc(C)cc(C)n4)c(F)c3)c3c(N)ncnc3n2C)cn1 [Example 1368]
> 7.00,≥ 7.00,C#Cc1nc2cc(-c3c(C4=CC[C@@H](C(=O)N5CCCC5)CC4)c4c(N)ncnc4n3C)ccc2n1C [Example 1369]
6.60 to 7.00,6.60 to 7.00,C=CC(=O)NC1CC=C(c2c(-c3ccc(Oc4nccc(C)n4)c(F)c3)c3c(N)ncnc3n2C)CC1 (stereo not drawn) [Example 1370]
4.00 to 6.00,6.00 to 6.60,C=C(C)C(=O)Nc1ccc(-c2c(-c3ccc(-c4ccccc4O)nc3)c3c(N)ncnc3n2C)cc1 [Example 1371]
4.00 to 6.00,4.00 to 6.00,C=C(C)C(=O)Nc1ccc(-c2c(-c3ccc(-c4cccc(O)c4)nc3)c3c(N)ncnc3n2C)cc1 [Example 1372]
> 7.00,6.60 to 7.00,C=C(C)C(=O)Nc1ccc(-c2c(-c3ccc(-c4noc(C5CC5)n4)c(O)c3)c3c(N)ncnc3n2C)cc1 [Example 1373]
6.00 to 6.60,6.60 to 7.00,COCC#Cc1cc(C)c(-c2c(-c3ccc(Oc4nccc(C)n4)c(F)c3)c3c(C)ncnc3n2C)cn1 [Example 1374]
> 7.00,≥ 7.00,C#Cc1cc(F)c(-c2c(-c3ccc(Oc4nccc(C)n4)c(F)c3)c3c(C)ncnc3n2C)cn1 [Example 1375]
6.00 to 6.60,6.60 to 7.00,C=CC(=O)N[C@@H]1CC=C(c2c(-c3ccc(Oc4nccc(C)n4)c(F)c3)c3c(N)ncnc3n2C)CC1 [Example 1376]
6.00 to 6.60,6.00 to 6.60,C=CC(=O)N[C@H]1CC=C(c2c(-c3ccc(Oc4nccc(C)n4)c(F)c3)c3c(N)ncnc3n2C)CC1 [Example 1377]
4.00 to 6.00,4.00 to 6.00,COC/C=C/c1cc(C)c(-c2c(-c3ccc(Oc4nccc(C)n4)c(F)c3)c3c(N)ncnc3n2C)cn1 [Example 1378]
6.60 to 7.00,≥ 7.00,C#Cc1ncc2ccc(-c3c(-c4ccc(Oc5nccc(C)n5)c(F)c4)c4c(N)ncnc4n3C)cc2n1 [Example 1379]
6.00 to 6.60,6.00 to 6.60,C#Cc1cc(C)c(-c2cn3ncnc(N)c3c2C2=CC[C@@H](C(=O)N3CCC[C@H]3C)CC2)cn1 [Example 1380]
6.60 to 7.00,≥ 7.00,C#Cc1ncc(-c2c(-c3ccc(Oc4nccc(C)n4)c(F)c3)c3c(C)ncnc3n2C)cc1OC [Example 1381]
> 7.00,≥ 7.00,COCC#Cc1cc(C)c(-c2c(C3=CC[C@H](C(=O)N4CCC[C@H]4C)CC3)c3c(N)ncnc3n2C)cn1 [Example 1382]
6.00 to 6.60,6.00 to 6.60,COCC#Cc1cc(C)c(-c2c(C3=CC[C@@H](C(=O)N4CCC[C@H]4C)CC3)c3c(N)ncnc3n2C)cn1 [Example 1383]
> 7.00,6.60 to 7.00,C#Cc1cnc2ccc(-c3c(-c4ccc(Oc5nccc(C)n5)c(F)c4)c4c(N)ncnc4n3C)cc2n1 [Example 1384]

pIC50 (FGFR2),pIC50 (SNU-16),SMILES
> 7.00,≥ 7.00,C#Cc1ncc2cc(-c3c(-c4ccc(Oc5nccc(C)n5)c(F)c4)c4c(N)ncnc4n3C)ccc2n1 [Example 1385]
> 7.00,≥ 7.00,COCC#Cc1cc(C)c(-c2c(-c3ccc(Oc4nccc(C)n4)cc3)c3c(N)ncnc3n2C)cn1 [Example 1386]
4.00 to 6.00,4.00 to 6.00,C#Cc1cc(C)c(-c2cn3ncnc(N)c3c2C2=CC[C@H](C(=O)N3CCC[C@H]3C)CC2)cn1 [Example 1387]
> 7.00,≥ 7.00,C#Cc1nc2cc(-c3c(-c4ccc(Oc5nccc(C)n5)c(F)c4)c4c(N)ncnc4n3C)c(F)cc2n1C [Example 1388]
4.00 to 6.00,6.00 to 6.60,C=C(C)C(=O)Nc1ccc(-c2c(-c3ccc(-c4cccc(O)c4)c(C#N)c3)c3c(N)ncnc3n2C)cc1 [Example 1389]
4.00 to 6.00,4.00 to 6.00,C=C(C)C(=O)Nc1ccc(-c2c(-c3ccc4[nH]ncc4c3)c3c(N)ncnc3n2C)cc1 [Example 1390]
> 7.00,≥ 7.00,C#Cc1cc2c(cn1)-c1c(-c3ccc(Oc4nccc(C)n4)cc3)c3c(N)ncnc3n1CCC2 [Example 1391]
4.00 to 6.00,4.00 to 6.00,C#Cc1cc(C)c(-c2c(C3=CC[C@@]4(CC3)Cc3ccc(C)nc3O4)c3c(C)ncnc3n2C)cn1 [Example 1392]
4.00 to 6.00,4.00 to 6.00,C#Cc1cc(C)c(-c2c(C3=CC[C@@]4(CC3)Cc3ccc(C)nc3O4)c3c(N)ncnc3n2C)cn1 [Example 1393]
6.60 to 7.00,6.60 to 7.00,C#Cc1cc(C)c(-c2c(C3=CC[C@@]4(CC3)Cc3ccc(C)nc3C4=O)c3c(N)ncnc3n2C)cn1 [Example 1394]
> 7.00,≥ 7.00,C#Cc1nc2ccc(-c3c(-c4ccc(Oc5nccc(C)n5)c(F)c4)c4c(N)ncnc4n3C)cc2n1C [Example 1395]
6.00 to 6.60,4.00 to 6.00,C#Cc1cc(C)c(-c2c(C3=CC[C@]4(CC3)Cc3ccc(C)nc3O4)c3c(C)ncnc3n2C)cn1 [Example 1396]
6.00 to 6.60,≥ 7.00,C#Cc1ncc(-c2c(-c3ccc(Oc4nccc(C)n4)c(F)c3)c3c(C)ncnc3n2C)c(C)c1OC [Example 1397]
> 7.00,≥ 7.00,C#Cc1cc(C)c(-c2c(C3=CC[C@]4(CC3)Cc3ccc(C)nc3C4=O)c3c(N)ncnc3n2C)cn1 [Example 1398]
> 7.00,6.60 to 7.00,C#Cc1cc(C)c(-c2c(C3=CC[C@]4(CC3)Cc3ccc(C)nc3O4)c3c(N)ncnc3n2C)cn1 [Example 1399]
> 7.00,≥ 7.00,C#Cc1cc(C)c(-c2c(-c3ccc(Oc4nccc(C)n4)c(F)c3)c3c(C)ncnc3n2C)c(F)n1 [Example 1400]
> 7.00,≥ 7.00,C#Cc1cc(C)c(-c2c(-c3ccc(Oc4nccc(C)n4)c(F)c3)c3c(Cl)ncnc3n2C)c(F)n1 [Example 1401]
4.00 to 6.00,4.00 to 6.00,C#Cc1cc2cc(-c3c(-c4ccc(Oc5nccc(C)n5)c(F)c4)c4c(N)ncnc4n3C)ccc2cn1 [Example 1402]
> 7.00,≥ 7.00,C#Cc1cc(OC)c(-c2c(-c3ccc(Oc4nccc(C)n4)c(F)c3)c3c(Cl)ncnc3n2C)cn1 [Example 1403]
6.00 to 6.60,6.00 to 6.60,C#Cc1cc2ccc(-c3c(-c4ccc(Oc5nccc(C)n5)c(F)c4)c4c(N)ncnc4n3C)cc2cn1 [Example 1404]
